# According to PubChem BioAssay (NCI):
#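 Tested at 5 concentrations; 48 h exposure; 96-well plates; endpoints linearly interpolated, else capped at highest concentration. TGI: total growth inhibition.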
# Columns and labels:
# Experiment in all cases: NCI anticancer screen, dose series, 48 h
# EKVX NSCLC = system: EKVX NSCLC
# HS 578T breast = system: HS 578T breast
# SK-MEL-28 melanoma = system: SK-MEL-28 melanoma
# NCI-H522 lung = system: NCI-H522 lung
# MALME-3M melanoma = system: MALME-3M melanoma
# HL-60(TB) leukemia = system: HL-60(TB) leukemia
# HT29 colon = system: HT29 colon
# UACC-257 melanoma = system: UACC-257 melanoma
# CCRF-CEM leukemia = system: CCRF-CEM leukemia
# KM12 colon = system: KM12 colon
# OVCAR-3 ovarian = system: OVCAR-3 ovarian
# SK-OV-3 ovarian = system: SK-OV-3 ovarian
# UO-31 renal = system: UO-31 renal
# NCI/ADR-RES ovarian = system: NCI/ADR-RES ovarian
# SF-539 CNS = system: SF-539 CNS
# HOP-62 NSCLC = system: HOP-62 NSCLC
# HOP-92 NSCLC = system: HOP-92 NSCLC
# HCT-15 colon = system: HCT-15 colon
# SF-268 CNS = system: SF-268 CNS
# RPMI-8226 leukemia = system: RPMI-8226 leukemia
# IGROV1 ovarian = system: IGROV1 ovarian
# TK-10 renal = system: TK-10 renal
# SN12C renal = system: SN12C renal
# NCI-H226 lung = system: NCI-H226 lung
# ACHN renal = system: ACHN renal
# MDA-MB-231 breast = system: MDA-MB-231 breast
# UACC-62 melanoma = system: UACC-62 melanoma
# COLO 205 colon = system: COLO 205 colon
# A549 NSCLC = system: A549 NSCLC
# SNB-19 CNS = system: SNB-19 CNS
# SNB-75 CNS = system: SNB-75 CNS
# SK-MEL-2 melanoma = system: SK-MEL-2 melanoma
# MDA-MB-435 = system: MDA-MB-435
# CAKI-1 renal = system: CAKI-1 renal
# RXF 393 renal = system: RXF 393 renal
# SR leukemia = system: SR leukemia
# NCI-H460 lung = system: NCI-H460 lung
# MDA-N = system: MDA-N
# NCI-H23 lung = system: NCI-H23 lung
# U251 CNS = system: U251 CNS
# 786-0 renal = system: 786-0 renal
# M14 melanoma = system: M14 melanoma
# OVCAR-8 ovarian = system: OVCAR-8 ovarian
# MOLT-4 leukemia = system: MOLT-4 leukemia
# OVCAR-5 ovarian = system: OVCAR-5 ovarian
# MCF7 breast = system: MCF7 breast
# SF-295 CNS = system: SF-295 CNS
# OVCAR-4 ovarian = system: OVCAR-4 ovarian
# PC-3 prostate = system: PC-3 prostate
# SW-620 colon = system: SW-620 colon
# SK-MEL-5 melanoma = system: SK-MEL-5 melanoma
# K-562 leukemia = system: K-562 leukemia
# LOX IMVI melanoma = system: LOX IMVI melanoma
# DU-145 prostate = system: DU-145 prostate
# HCT-116 colon = system: HCT-116 colon
smiles,measurement,setting,value
CN(NC(=O)/C(=C/c1ccc(Cl)cc1)NC(=O)c1ccccc1)c1cn[nH]c(=O)c1Cl,TGI,EKVX NSCLC,> 100 µM
same,TGI,HS 578T breast,> 100 µM
same,TGI,SK-MEL-28 melanoma,> 100 µM
same,TGI,NCI-H522 lung,56.6 µM
same,TGI,MALME-3M melanoma,> 100 µM
same,TGI,HL-60(TB) leukemia,41.6 µM
same,TGI,HT29 colon,> 100 µM
same,TGI,UACC-257 melanoma,> 100 µM
same,TGI,CCRF-CEM leukemia,> 100 µM
same,TGI,KM12 colon,> 100 µM
same,TGI,OVCAR-3 ovarian,> 100 µM
same,TGI,SK-OV-3 ovarian,> 100 µM
same,TGI,UO-31 renal,> 100 µM
same,TGI,NCI/ADR-RES ovarian,> 100 µM
same,TGI,SF-539 CNS,> 100 µM
same,TGI,HOP-62 NSCLC,> 100 µM
same,TGI,HOP-92 NSCLC,> 100 µM
same,TGI,HCT-15 colon,> 100 µM
same,TGI,SF-268 CNS,> 100 µM
same,TGI,RPMI-8226 leukemia,53.5 µM
same,TGI,IGROV1 ovarian,> 100 µM
same,TGI,TK-10 renal,> 100 µM
same,TGI,SN12C renal,> 100 µM
same,TGI,NCI-H226 lung,> 100 µM
same,TGI,ACHN renal,> 100 µM
same,TGI,MDA-MB-231 breast,> 100 µM
same,TGI,UACC-62 melanoma,> 100 µM
same,TGI,COLO 205 colon,> 100 µM
same,TGI,A549 NSCLC,> 100 µM
same,TGI,SNB-19 CNS,> 100 µM
same,TGI,SNB-75 CNS,> 100 µM
same,TGI,SK-MEL-2 melanoma,> 100 µM
same,TGI,MDA-MB-435,> 100 µM
same,TGI,CAKI-1 renal,> 100 µM
same,TGI,RXF 393 renal,> 100 µM
same,TGI,SR leukemia,> 100 µM
same,TGI,NCI-H460 lung,> 100 µM
same,TGI,MDA-N,> 100 µM
same,TGI,NCI-H23 lung,> 100 µM
same,TGI,U251 CNS,> 100 µM
same,TGI,786-0 renal,> 100 µM
same,TGI,M14 melanoma,> 100 µM
same,TGI,OVCAR-8 ovarian,> 100 µM
same,TGI,MOLT-4 leukemia,84.2 µM
same,TGI,OVCAR-5 ovarian,> 100 µM
same,TGI,MCF7 breast,> 100 µM
same,TGI,SF-295 CNS,> 100 µM
same,TGI,OVCAR-4 ovarian,> 100 µM
same,TGI,PC-3 prostate,> 100 µM
same,TGI,SW-620 colon,> 100 µM
same,TGI,SK-MEL-5 melanoma,> 100 µM
same,TGI,K-562 leukemia,> 100 µM
same,TGI,LOX IMVI melanoma,> 100 µM
same,TGI,DU-145 prostate,> 100 µM
same,TGI,HCT-116 colon,> 100 µM
